In the supplement of paper PMC10307832:

How the values were obtained:
Assay in all cases: relative viability (nuclei count vs DMSO), 5 days (fraction); higher = more cells survive
Wnt-C59 + Foretinib = compound: CC1=NC=CC(=C1)C2=CC=C(C=C2)CC(=O)NC3=CC=C(C=C3)C4=CN=CC=C4 [Wnt-C59] + COc1cc2c(Oc3ccc(NC(=O)C4(C(=O)Nc5ccc(F)cc5)CC4)cc3F)ccnc2cc1OCCCN1CCOCC1 [Foretinib] (partner 0.25 µM)
Outline: (§1)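 For relative viability, nuclei counts in treated wells were divided by those in vehicle wells. Lung cancer cell lines had been pin-tool dosed in 1536-well plates the day after seeding and cultured for 5 days, then fixed and stained in one step (final 0.05% Triton X-100, 1% formaldehyde, 1 ug/ml Hoechst) and imaged at 4×. Doses were one drug alone or a fixed anchor-drug dose plus five library-drug doses (not always all listed) in √10 steps, and values are duplicate-plate medians.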

Lapatinib + Phenformin = compound: CS(=O)(=O)CCNCc1ccc(-c2ccc3ncnc(Nc4ccc(OCc5cccc(F)c5)c(Cl)c4)c3c2)o1 [Lapatinib] + N=C(N)NC(=N)NCCc1ccccc1 [Phenformin] (partner 250 µM)
Outline: as §1

Wnt-C59 + Phenformin = compound: CC1=NC=CC(=C1)C2=CC=C(C=C2)CC(=O)NC3=CC=C(C=C3)C4=CN=CC=C4 [Wnt-C59] + N=C(N)NC(=N)NCCc1ccccc1 [Phenformin] (partner 250 µM)
Outline: as §1

Wnt-C59 = compound: CC1=NC=CC(=C1)C2=CC=C(C=C2)CC(=O)NC3=CC=C(C=C3)C4=CN=CC=C4 [Wnt-C59]
Outline: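 Viability was defined as treated-well nuclei divided by vehicle-well nuclei, with the median taken over replicate plates. Cells from lung cancer lines sat overnight at 37 °C in 1536-well plates, received five √10-spaced library-drug doses by pinning on vehicle-anchored plates, and grew 5 days without medium change before one-step fixation, permeabilisation and Hoechst staining, 4× imaging and MetaXpress nuclear counts. Only plates with control CV under 25% and at least one doubling were kept.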

Cell Line	relative viability (Wnt-C59 + Foretinib; first compound 0.001 µM)	relative viability (Wnt-C59 + Foretinib; first compound 0.01 µM)	relative viability (Wnt-C59 + Foretinib; first compound 0.03162 µM)	relative viability (Wnt-C59 + Foretinib; first compound 0.1 µM)	relative viability (Lapatinib + Phenformin; first compound 0.2 µM)	relative viability (Lapatinib + Phenformin; first compound 0.6325 µM)	relative viability (Lapatinib + Phenformin; first compound 2 µM)	relative viability (Wnt-C59 + Phenformin; first compound 0.001 µM)	relative viability (Wnt-C59 + Phenformin; first compound 0.01 µM)	relative viability (Wnt-C59 + Phenformin; first compound 0.03162 µM)	relative viability (Wnt-C59 + Phenformin; first compound 0.1 µM)	relative viability (Wnt-C59; 0.001 µM)	relative viability (Wnt-C59; 0.01 µM)	relative viability (Wnt-C59; 0.03162 µM)	relative viability (Wnt-C59; 0.1 µM)	relative viability (Lapatinib + Phenformin; first compound 0.02 µM)	relative viability (Lapatinib + Phenformin; first compound 0.06325 µM)
NCI-H23	0.952	0.97	0.967	1.02	0.792	0.805	0.761	0.842	0.663	0.907	0.749	0.827	0.972	1.01	1	–	–
NCI-H322M	0.879	0.802	0.896	0.68	0.736	0.693	0.551	0.775	0.683	0.629	0.581	0.999	0.859	0.84	0.867	0.805	0.736
NCI-H358	0.759	0.648	1.04	0.678	0.222	0.215	0.171	0.343	0.257	0.431	0.337	1.01	0.785	0.957	0.975	0.25	0.107
NCI-H441	0.977	1.05	1.01	1.04	0.946	0.901	0.873	0.845	0.732	1.04	0.724	1.11	1.22	1.1	0.993	–	0.43
NCI-H460	1.03	0.966	1.02	0.94	0.52	0.504	0.446	0.488	0.524	0.519	0.484	0.973	0.95	1.02	0.957	0.487	0.48
NCI-H520	0.792	0.696	0.867	0.689	0.542	0.653	0.638	0.503	0.59	0.59	0.55	1.1	0.95	0.901	1.07	0.516	0.596
NCI-H522	–	–	–	–	0.554	0.674	0.546	0.614	0.599	0.601	0.64	1.04	0.927	0.994	0.957	–	0.557
NCI-H596	0.885	0.899	0.835	0.898	0.748	0.762	0.685	0.746	0.71	0.923	0.722	0.93	0.936	1.12	1.06	–	0.654
NCI-H1299	1.15	1.06	1.05	1.11	–	–	–	–	–	–	–	1.03	1.03	1.03	1.01	–	–
NCI-H1648	–	–	–	–	–	–	–	–	–	–	–	0.881	1.06	1.05	0.9	–	–
NCI-H1703	0.346	0.279	0.355	0.348	–	–	–	–	–	–	–	1.02	0.967	1.05	0.97	–	–
NCI-H1792	–	–	–	–	0.219	0.207	0.289	0.363	0.301	–	0.22	0.918	0.921	0.705	1.07	–	–
